BCS class, Solubility in water and Bioavailability data for two molecules are collected here from patent publication US12624040B2, “Compositions of substituted pyrazolopyrimidines and uses thereof” (KSQ Therapeutics, Inc., priority 2020, dated 2026).

Series [1] can be described thus: Aqueous solubility / BCS classification. It is filed as physicochemical. As to conditions: for BCS class: low solubility/high permeability; for Solubility in water: physiological pHs (from pH 1.5-8.0). The text has this:
Studies of these compounds indicate that these compounds are BCS class II compounds (low solubility/high permeability). […] Poor bioavailability is also often accompanied by highly variable patient blood levels and unpredictable dose/therapeutic effects due to erratic absorption of the drug by the patient. Accordingly, a need exists for compositions and methods to increase the solubility of these compounds.

Series [2] is described as follows: Bioavailability.

Consider `COc1ncnc(C2CC2)c1-c1ncc2cnn(Cc3ccc(-c4nc(C(F)(F)F)cn4C(C)C)cc3)c2n1` [Formula II, 6-(4-cyclopropyl-6-methoxypyrimidin-5-yl)-1-(4-(1-isopropyl-4-(trifluoromethyl)-1H-imidazol-2-yl)benzyl)-1H-pyrazolo[3,4-d]pyrimidine], for which, in series [1], the BCS class entry was “BCS class II” and the Solubility in water entry is recorded as “poorly soluble”. Also, the Bioavailability entry in series [2] is recorded as “low bioavailability”.
The matching figures for `COc1ncnc(C2CC2)c1-c1ncc2cnn(Cc3ccc(-n4nc(C(F)(F)F)cc4C)cc3)c2n1` [Formula III, 6-(4-cyclopropyl-6-methoxypyrimidin-5-yl)-1-(4-(5-methyl-3-(trifluoromethyl)-1H-pyrazol-1-yl)benzyl)-1H-pyrazolo[3,4-d] pyrimidine]: “BCS class II”, “poorly soluble” and “low bioavailability”.
